Reference: patent publication US20100099631A1, “Novel Use” (priority 2006, published 2010)
Like-named read-outs stand apart in the source and are kept apart here.

Tests used:
[1] = Plasma caffeine concentration by HPLC during recovery after exercise; format: in vivo, human (trained cyclists); conditions: for concentration at 1 h / concentration at 4 h: 4 mg/kg BM
Procedure: (§1) Eight trained cyclists participated in a study which was approved by the Ethics Committee of RMIT University, Melbourne, Australia. Each subject participated in two experimental trials separated by 7 to 10 days. Trials were randomised and double-blind. Approximately 12 to 14 hours before each trial, the subjects reported to the laboratory to undertake 90 minutes of intense cycling (repeated sprints) to deplete muscle glycogen stores. The subjects were then fed a standardised low carbohydrate meal (60% of energy from fat) and had to refrain from solid feeding for the following 12 to 14 hours. During this period water was allowed ad libitum.
(§2) Laboratory conditions were standardised for the tests with 50% relative humidity and a temperature of 20° C. Immediately on completion of the exercise and while subjects remained seated on the cycle ergometer, a muscle biopsy was taken and frozen within 15 seconds of the last muscle contraction. After the biopsy, subjects dismounted the ergometer and rested in a supine position. During one trial, subjects were fed 1 g/kg body mass (BM) of carbohydrate immediately upon cessation of exercise and thereafter 1 g/kg BM of carbohydrate after 60, 120 and 180 minutes of recovery (a total of 4 g/kg BM carbohydrate). In the second trial, subjects followed the same carbohydrate ingestion regimen but in addition consumed 4 mg/kg BM of caffeine immediately upon cessation of the exercise and then after 120 minutes during recovery. Blood samples were taken at regular intervals throughout the recovery period (0, 30, 60, 90, 120, 180 and 240 minutes). Muscle biopsies were taken immediately after exercise and after 1 and 4 hr of recovery. All muscle samples were stored at −80° C. until analysis.
(§3) Blood samples were analysed for plasma glucose and insulin concentrations at rest, and at regular intervals during recovery. The protocols for blood analysis are routine and have been described previously ((McInerney P., Lessard S. J., Burke L. M., Coffey V. G., Lo Giudice S. L., Southgate R. J., Hawley J. A. Failure to repeatedly supercompensate muscle glycogen stores in highly trained men. Med. Sci. Sports Excer. 37:404-411, 2005). Plasma caffeine levels were analysed by high-performance liquid chromatography. Muscle samples were analysed for glycogen content immediately after exercise and after 1 and 4 hours of recovery.

[2] = Plasma glucose and insulin concentrations during 4 hr recovery after glycogen-depleting exercise; format: in vivo, human (trained cyclists)
Procedure: as §1
(§4) The next morning, subjects reported to the laboratory between 0600 and 0700 hours. After a rest period of 10 minutes, an indwelling canula was inserted into the right forearm and a resting blood sample taken. Local anaesthesia was applied to the subjects skin to enable subcutaneous tissue and fascia of the vastus lateralis of the subjects right leg in preparation for muscle biopsies.
(§5) After biopsy preparation, a bout of exhaustive exercise (submaximal continuous cycling) was undertaken to further deplete muscle glycogen stores. The exhaustive cycling protocol has been previously described by McInerney et al. (McInerney P., Lessard S. J., Burke L. M., Coffey V. G., Lo Giudice S. L., Southgate R. J., Hawley J. A. Failure to repeatedly supercompensate muscle glycogen stores in highly trained men. Med. Sci. Sports Excer. 37:404-411, 2005). During exercise the subjects were allowed to drink water ad libitum and were fan-cooled.
as §2, §3

[3] = system: muscle glycogen; assay: Muscle glycogen content and resynthesis rate (vastus lateralis biopsies) after exhaustive exercise; format: in vivo, human (trained cyclists); conditions: for Muscle Glycogen Resynthesis Rate: caffeine with carbohydrate
Procedure: as §1, §4, §5, §2, §3

[4] = system: muscle glucose oxidation; conditions: co-ingestion of caffeine and glucose during exercise; cited from earlier work
[5] = rest, before exercise and ingestion
[6] = 0 hr, immediately post exercise
[7] = 0.5 hr recovery, caffeine 4 mg/kg BM at 0 and 120 min with carbohydrate 1 g/kg BM hourly
[8] = 1 hr recovery, caffeine 4 mg/kg BM at 0 and 120 min with carbohydrate 1 g/kg BM hourly
[9] = 1.5 hr recovery, caffeine 4 mg/kg BM at 0 and 120 min with carbohydrate 1 g/kg BM hourly
[10] = 2 hr recovery, caffeine 4 mg/kg BM at 0 and 120 min with carbohydrate 1 g/kg BM hourly
[11] = 3 hr recovery, caffeine 4 mg/kg BM at 0 and 120 min with carbohydrate 1 g/kg BM hourly
[12] = 4 hr recovery, caffeine 4 mg/kg BM at 0 and 120 min with carbohydrate 1 g/kg BM hourly

Structure (SMILES): Cn1c(=O)c2c(ncn2C)n(C)c1=O [Caffeine, caffeine]
- concentration at 0 h ([1]; human, plasma, oral, 0 hr, immediately post exercise): 0 nM
- concentration at 1 h ([1]; human, plasma, oral, 1 hr recovery, oral caffeine 4 mg/kg BM at 0 and 120 min with carbohydrate, read-out: Plasma caffeine concentration): 31.5 µM
- concentration at 4 h ([1]; human, plasma, oral, 4 hr recovery, oral caffeine 4 mg/kg BM at 0 and 120 min with carbohydrate, read-out: Plasma caffeine concentration): 77.9 µM
- concentration at 1 h ([1]; human, plasma, oral, after 1 hr, carbohydrate and caffeine, read-out: plasma caffeine levels): 30 µM
- concentration at 4 h ([1]; human, plasma, oral, after 4 hr, carbohydrate and caffeine, read-out: plasma caffeine levels): ~80 µM
- Plasma caffeine concentration [1, 5]: 0.00 µM
- Plasma Glucose [2, 6]: 3.62 mmol/L
- Plasma Insulin [2, 6]: 4.17 uU/mL
- Plasma Glucose [2, 7]: 6.06 mmol/L
- Plasma Insulin [2, 7]: 30.17 uU/mL
- Plasma Glucose [2, 8]: 6.29 mmol/L
- Plasma Insulin [2, 8]: 29.23 uU/mL
- Plasma Glucose [2, 9]: 5.95 mmol/L
- Plasma Insulin [2, 9]: 46.33 uU/mL
- Plasma Glucose [2, 10]: 5.58 mmol/L
- Plasma Insulin [2, 10]: 46.02 uU/mL
- Plasma Glucose [2, 11]: 5.24 mmol/L
- Plasma Insulin [2, 11]: 68.53 uU/mL
- Plasma Glucose [2, 12]: 5.23 mmol/L
- Plasma Insulin [2, 12]: 46.91 uU/mL
- area under the insulin versus time curve compared to carbohydrate alone ([2]; caffeine with carbohydrate, 4 hr recovery, P<0.05): significantly greater
- Plasma Glucose [2, 5]: 4.04 mmol/L
- Plasma Insulin [2, 5]: 9.36 uU/mL
- Muscle Glycogen Resynthesis Rate ([3]; 0-1 hr of recovery): 63.52 mm/Kg · hr · dm
- Muscle Glycogen Content [3, 6]: 76 mmol/Kg · dm
- Muscle Glycogen Content [3, 8]: 149 mmol/Kg · dm
- Muscle Glycogen Resynthesis Rate ([3]; 1 hr-4 hr of recovery): 57.69 mm/Kg · hr · dm
- Muscle Glycogen Content [3, 12]: 313 mmol/Kg · dm
- Muscle Glycogen Content ([3]; after 1 hr of recovery): 149±18 mmol/kg d.w
- increase of muscle glycogen content ([3]; after 1 hr of recovery, vs exhaustion): ~80%
- muscle glycogen levels ([3]; after 4 hr of recovery, co-ingestion of caffeine with CHO, P<0.001 vs placebo): 313±26 mmol/kg d.w.
- muscle glycogen levels at exhaustion ([3]; at exhaustion, before ingestion): 76 ± 9 mmol/kg
- rates of muscle glycogen synthesis, higher than PL (carbohydrate alone) ([3]; from 1-4 hr of recovery): 66%
- rates of muscle glycogen synthesis ([3]; from 1-4 hr of recovery, P<0.05 vs PL): 57.7 ± 7.6 mmol/kg/h
- average rate of resynthesis, higher than PL (carbohydrate alone) ([3]; over the 4 hours of recovery): 66%
- average rate of resynthesis ([3]; over the 4 hours of recovery, P<0.05 vs PL): 57.71 ± 7.6 mmol/kg/h
- increase in muscle glucose oxidation [4]: 26%
